The test system of the assay is ent-kaurene synthase B (KSB). Briefly: Properties of KSB with the phenyl-purified enzyme preparation (pH, Km, cations). The format is biochemical, Cucurbita maxima L. The conditions noted are these: for effect of divalent cation on KSB activity: 0.1-50 mM as chlorides, instead of 5 mM Mg2+; for effect of divalent cation on KSB activity / optimal concentration of cation for KSB activity: FIG. 4; for optimal concentration of cation for KSB activity: cation as chloride instead of 5 mM Mg2+. As for the experimental part: The mixture was incubated at 30° C. for 30 min, and the enzyme reaction was terminated by the addition of acetone (200 μL) and water (100 μL). The mixture was extracted with n-hexane (400 μL), and 300 μL alibuots of the extract were concentrated in vacuo and applied to a silica gel plate. After developing with n-hexane, the radioactivity of the silica gel of the ent-kaurene region (Rf 0.6-1.0) was determined. One unit of kaurene synthase activity was defined as the production of 1 pmol of ent-kaurene per minute.
The amount of [1-^3 H]CPP was 2.2 kBq and the incubation period was 15 min. The other conditions were the same as those for the enzyme assay. To determine the optimal pH, KPi buffer (50 mM) adjusted to a particular pH (pH 4.5 to 9.0) was used. […] The production of ent-kaurene was calculated and the Km value was determined from a Lineweaver-Burk plot.

This is an account of results in patent publication US6020176A, “Kaurene synthase” (The Institute of Physical and Chemical Research, priority 1995, dated 2000).

In general, Km refers to the concentration of substrate that gives half-maximal velocity.

Regarding `[Ba+2].[Cl-].[Cl-]` [Ba^2+], the “effect of divalent cation on KSB activity” value (“effect of divalent cation” for short) is “showed no effects”. Besides, the “effect on KSB activity in combination with 5 mM Mg2+” value (from here on “effect on KSB activity”) (added together with 5 mM Mg2+) was “inhibited KSB activity promoted by Mg^2+”. For the compound `[Ca+2].[Cl-].[Cl-]` [Ca^2+], the “effect of divalent cation” value is on record as “showed no effects”. Further, the “effect on KSB activity” value (added together with 5 mM Mg2+) is reported as “inhibited KSB activity promoted by Mg^2+”. For `[Cl-].[Cl-].[Co+2]` [Co^2+], the “effect of divalent cation” value is listed as “promoted KSB activity” and the “optimal concentration of cation for KSB activity” value is “around 10 mM”. With `[Cl][Cu][Cl]` [Cu^2+], the “effect of divalent cation” value is “showed no effects”. Further, where the note is “added together with 5 mM Mg2+”, the “concentration completely inhibiting the conversion promoted by 5 mM Mg2+” value is given as “above 0.5 mM” and the “effect on KSB activity” value is “inhibited KSB activity promoted by Mg^2+”.

On to `O=C(O)CN(CCN(CC(=O)O)CC(=O)O)CC(=O)O` [EDTA], for which the “effect of EDTA on KSB activity” value (EDTA 1-100 mM) was “did not change KSB activity”.

For the compound `[Cl][Fe][Cl]` [Fe^2+], the “effect of divalent cation” value is reported as “weakly promoted KSB activity”.

`[Cl-].[Cl-].[Mg+2]` [Mg^2+]: the “effect of divalent cation” value was “promoted KSB activity” and the “optimal concentration of cation for KSB activity” value is recorded as “around 10 mM”. For `[Cl][Mn][Cl]` [Mn^2+], in that order: “promoted KSB activity” and “around 10 mM”. `[Cl][Ni][Cl]` [Ni^2+]: the “effect of divalent cation” value was “weakly promoted KSB activity”. Turning to `C=C1CC[C@@H]2C(C)(C)CCC[C@@]2(C)[C@@H]1CC/C(C)=C/COP(=O)(O)OP(=O)(O)O` [[15-^3 H]CPP, copalyl pyrophosphate], the Km (phenyl-purified enzyme preparation, CPP 7 to 480 nM, Lineweaver-Burk plot) is 0.35 µM.
